Data: US8252806B2, “Potassium channel modulating agents and their medical use” (Neurosearch A/S, priority 2005, dated 2012)

Columns and labels:
[1] = biological target: T1, small-conductance Ca2+-activated K+ channel, subtype 3 (SK3) (Homo sapiens, UniProt Q9UGI6); experiment: Whole-cell patch-clamp recording of SK3 current in HEK293 cells stably expressing hSK3; format: cell-based; settings: baseline current at -20 mV, 300 nM free Ca2+
T1 construct: expressed in transfected cells; host or cells: HEK293 cells stably transfected with pNS3_hSK3
Description: The ionic current through small-conductance Ca^2+-activated K^+ channels (SK channels, subtype 3) is recorded using the whole-cell configuration of the patch-clamp technique.
The small-conductance Ca^2+-activated K^+ channel, subtype 3 (SK3) was cloned from human skeletal muscle and stably expressed in HEK293 cells.
Human SK3 (hSK3) was sub-cloned into the expression vector pNS3n, a customized vector derived from pcDNA3 (InVitrogen) to give the plasmid construct pNS3_hSK3. HEK293 tissue culture cells were grown in DMEM (Dulbecco's Modified Eagle Medium) supplemented with 10% FCS (foetal calf serum) at 37° C. in 5% CO2. […]
Experiments are carried out on one of several patch-clamp set-ups. […] Data are stored directly on the hard-disk and analysed by IGOR software (Wavemetrics, Lake Oswega, Oreg., USA).
The whole-cell configuration of the patch-clamp technique is applied. […] Cell capacitance is electronically compensated and the resistance between the pipette and the cell interior (the series resistance, Rs) is measured and compensated for. […]
The intracellular (pipette) solution has the following composition (in mM): 105 KCl, 45 KOH, 10 EGTA, 1.21 MgCl2, 7.63 CaCl2, and 10 HEPES (pH=7.2 with HCl). The calculated free concentration of Ca^2+ in this solution is 300 nM and that of Mg^2+ is 1 mM. […]
Active compounds are quantified by calculating the change in baseline current at −20 mV. […]

In the case of `Cc1cc(C)n(-c2nc(NC3CCCCC3)c3ccccc3n2)n1` [Compound A8, Cyclohexyl-[2-(3,5-dimethyl-pyrazol-1-yl)-quinazolin-4-yl]-amine], the “SC100 (Stimulating Concentration required for increasing the baseline current by 100%)” value [1] is reported as 0.035 µM.

`Cc1cc(C)n(-c2nc(Nc3ccccc3)c3ccccc3n2)n1` [Compound B1, [2-(3,5-Dimethyl-pyrazol-1-yl)-quinazolin-4-yl]-phenyl-amine] showed a melting point of 262.4 to 265.3 °C.
